Laboratory results reported in patent US7534800B2, “7-azaindoles as inhibitors of c-Jun N-terminal kinases for the treatment of neurodegenerative disorders” (Eisai R & D Development Co., Ltd., priority 2002, dated 2009).

These compounds were tested against JNK3 kinase (Homo sapiens, UniProt P53779) (assay: JNK3 SPA assay (phosphorylation of GST-c-Jun, [γ-33P] ATP)). Conditions: 3.33 μM ATP, GST-c-Jun substrate, 30 minutes at room temperature.
Assay type: biochemical
Protocol: JNK1, JNK27 JNK3—SPA Assay
A typical assay for testing the activity of compounds to inhibit JNK1, JNK2 and JNK3 enzymes is as follows: • 1. Compound is dissolved in DMSO to a convenient concentration and this is diluted in 10% DMSO to a five times concentrate of the desired starting concentration (frequently 1:100). • 2. 10 μl of 500 mM EDTA is added to alternative wells of the Opti-plate row, which will receive kinase reaction plus DMSO. This creates the negative control. • 3. For the JNK2 and JNK3 assay, compounds are prepared in six 2-fold dilutions with water and each concentration is tested in duplicate. For the JNK1 assay compounds are prepared in four 5-fold dilutions with water which are tested in triplicate. Controls are treated identically. • 4. 20 μl per well of each compound concentration is transferred to an Opti-plate, in duplicate. • 5. 30 μl (JNK2/3 SPA) or 50 μl (JNK1 SPA) of substrate solution (25 mM HEPES pH 7.5, 10 mM magnesium acetate with 3.33 μm ATP (JNK2/3) or 2 μM ATP (JNK1), approximately 7.5 kBq [γ-33P] ATP, GST-c-Jun, in water) is added to each well. • 6. 50 μl (JNK2/3 SPA) or 30 μl (JNK1 SPA) of kinase solution (JNK in 25 mM HEPES pH 7.5, 10 mM Mg Acetate) is added to each well.
• 7. The plate is incubated for 30 minutes at room temperature. • 8. 100 μl of bead/stop solution is added to each well (5 mg/ml glutathione-PVT-SPA beads, 40 µM ATP in PBS). • 9. Plates are sealed and incubated for 30 minutes at room temperature, centrifuged for 10 minutes at 2500 g and counted. • 10. The IC50 values are calculated as the concentration of the compound being tested at which the phosphorylation of c-Jun is decreased to 50% of the control value.

Sequence of JNK3 kinase (P53779 whole entry): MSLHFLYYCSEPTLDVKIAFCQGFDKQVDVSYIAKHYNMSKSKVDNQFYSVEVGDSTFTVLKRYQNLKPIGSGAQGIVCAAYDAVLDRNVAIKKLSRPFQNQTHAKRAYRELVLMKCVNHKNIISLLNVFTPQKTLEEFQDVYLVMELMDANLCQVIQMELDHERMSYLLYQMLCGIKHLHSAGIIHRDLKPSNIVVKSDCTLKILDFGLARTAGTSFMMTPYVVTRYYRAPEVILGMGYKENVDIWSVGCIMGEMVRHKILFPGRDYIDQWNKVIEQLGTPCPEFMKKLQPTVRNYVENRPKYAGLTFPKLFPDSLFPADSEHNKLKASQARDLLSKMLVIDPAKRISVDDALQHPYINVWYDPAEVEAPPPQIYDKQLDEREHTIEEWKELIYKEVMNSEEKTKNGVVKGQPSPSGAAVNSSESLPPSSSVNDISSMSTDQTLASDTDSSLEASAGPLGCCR

SMILES | IC50 [µM]
C#CCNC(=O)c1c[nH]c2ncc(-c3cccc(F)c3)cc12 | 0.85
O=C(NNc1ccccc1)c1c[nH]c2ncc(-c3cccc(F)c3)cc12 | 0.78
C#CCNC(=O)c1c[nH]c2ncc(-c3ccc(N(C)C)cc3)cc12 | 0.52
